PubChem BioAssay AID1963970 (Molecular Pharmacology Branch, DTP, NCI, 2024)
Several values for one entry are separate records, joined by “and”; a condition that tells them apart may be missing. Equal values may be shown once. Blank lines part the entries; values can stand above or below the compound they belong to.

Tested on: 931267-113-T-J1-PDC multicell spheroid viability
Assay: Anticancer human tumor 931267-113-T-J1-PDC patient-derived colon adenocarcinoma cell line growth inhibition [PI3K]
Conditions: for viability, T/C: stronger effect = lower value
In short: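 Viability of mixed-cell spheroids was determined after exposure to pairwise combinations, one partner being inavolisib, alpelisib, duvelisib or copanlisib. Highest tested concentration matched clinical Cmax where known and 10 microM where not, descending in half-log steps.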

[1] = curve of first compound, second compound 0.0316 µM
[2] = curve of first compound, second compound 0.1 µM
[3] = curve of first compound, second compound 0.316 µM
[4] = curve of first compound, second compound 1 µM
[5] = curve of first compound, second compound 3.16 µM
[6] = curve of first compound, second compound 10 µM
[7] = second compound 0.0316 µM, first compound 0.0316 µM
[8] = second compound 0.0316 µM, first compound 0.1 µM
[9] = second compound 0.0316 µM, first compound 0.316 µM
[10] = second compound 0.0316 µM, first compound 1 µM
[11] = second compound 0.0316 µM, first compound 3.16 µM
[12] = second compound 0.0316 µM, first compound 10 µM
[13] = second compound 0.1 µM, first compound 0.0316 µM
[14] = second compound 0.1 µM, first compound 0.1 µM
[15] = second compound 0.1 µM, first compound 0.316 µM
[16] = second compound 0.1 µM, first compound 1 µM
[17] = second compound 0.1 µM, first compound 3.16 µM
[18] = second compound 0.1 µM, first compound 10 µM
[19] = second compound 0.316 µM, first compound 0.0316 µM
[20] = second compound 0.316 µM, first compound 0.1 µM
[21] = second compound 0.316 µM, first compound 0.316 µM
[22] = second compound 0.316 µM, first compound 1 µM
[23] = second compound 0.316 µM, first compound 3.16 µM
[24] = second compound 0.316 µM, first compound 10 µM
[25] = second compound 1 µM, first compound 0.0316 µM
[26] = second compound 1 µM, first compound 0.1 µM
[27] = second compound 1 µM, first compound 0.316 µM
[28] = second compound 1 µM, first compound 1 µM
[29] = second compound 1 µM, first compound 3.16 µM
[30] = second compound 1 µM, first compound 10 µM
[31] = second compound 3.16 µM, first compound 0.0316 µM
[32] = second compound 3.16 µM, first compound 0.1 µM
[33] = second compound 3.16 µM, first compound 0.316 µM
[34] = second compound 3.16 µM, first compound 1 µM
[35] = second compound 3.16 µM, first compound 3.16 µM
[36] = second compound 3.16 µM, first compound 10 µM
[37] = second compound 10 µM, first compound 0.0316 µM
[38] = second compound 10 µM, first compound 0.1 µM
[39] = second compound 10 µM, first compound 0.316 µM
[40] = second compound 10 µM, first compound 1 µM
[41] = second compound 10 µM, first compound 3.16 µM
[42] = second compound 10 µM, first compound 10 µM
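Further: viability read 7 days after compound addition.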

- IC50 [1]: > 10 µM
- IC50 [2]: > 10 µM
- IC50 [3]: > 10 µM
- IC50 [4]: > 10 µM
- IC50 [5]: > 10 µM
- IC50 [6]: > 10 µM
SMILES: CC(C)NCC(C(=O)N1CCN(c2ncnc3c2C(C)CC3O)CC1)c1ccc(Cl)cc1 (stereo not given) + Cc1nc(NC(=O)N2CCCC2C(N)=O)sc1-c1ccnc(C(C)(C)C(F)(F)F)c1
- viability, T/C [7]: 103%
- viability, T/C [8]: 103%
- viability, T/C [9]: 90.9%
- viability, T/C [10]: 95.2%
- viability, T/C [11]: 97.6%
- viability, T/C [12]: 73.5%
- viability, T/C [13]: 97.8%
- viability, T/C [14]: 85.5%
- viability, T/C [15]: 92.6%
- viability, T/C [16]: 86.7%
- viability, T/C [17]: 83.5%
- viability, T/C [18]: 71.7%
- viability, T/C [19]: 97.9%
- viability, T/C [20]: 89.6%
- viability, T/C [21]: 88.7%
- viability, T/C [22]: 84%
- viability, T/C [23]: 80.4%
- viability, T/C [24]: 68.6%
- viability, T/C [25]: 82.2%
- viability, T/C [26]: 80.4%
- viability, T/C [27]: 89.3%
- viability, T/C [28]: 88.8%
- viability, T/C [29]: 79.9%
- viability, T/C [30]: 67.7%
- viability, T/C [31]: 73.2%
- viability, T/C [32]: 81.1%
- viability, T/C [33]: 67.7%
- viability, T/C [34]: 65%
- viability, T/C [35]: 70%
- viability, T/C [36]: 61%
- viability, T/C [37]: 60.4%
- viability, T/C [38]: 52.4%
- viability, T/C [39]: 59%
- viability, T/C [40]: 57.4%
- viability, T/C [41]: 62.8%
- viability, T/C [42]: 51.4%

- IC50 (curve of first compound, second compound 0.00316 µM): 0.103 µM
- IC50 (curve of first compound, second compound 0.01 µM): 0.081 µM
- IC50 [1]: 0.0422 µM
- IC50 [2]: 0.014 µM
- IC50 [3]: < 0.00949 µM
- IC50 [4]: < 0.00949 µM
SMILES: Cn1cnc2c(F)c(Nc3ccc(Br)cc3Cl)c(C(=O)NOCCO)cc21 + COc1c(OCCCN2CCOCC2)ccc2c3n(c(=NC(=O)c4cnc(N)nc4)nc12)CCN3
- viability, T/C (second compound 0.00316 µM, first compound 0.00949 µM): 83.7%
- viability, T/C (second compound 0.00316 µM, first compound 0.03 µM): 71%
- viability, T/C (second compound 0.00316 µM, first compound 0.0949 µM): 51.1%
- viability, T/C (second compound 0.00316 µM, first compound 0.3 µM): 31.4%
- viability, T/C (second compound 0.00316 µM, first compound 0.949 µM): 18.3%
- viability, T/C (second compound 0.00316 µM, first compound 3 µM): 9.54%
- viability, T/C (second compound 0.01 µM, first compound 0.00949 µM): 88.6%
- viability, T/C (second compound 0.01 µM, first compound 0.03 µM): 73.1%
- viability, T/C (second compound 0.01 µM, first compound 0.0949 µM): 45%
- viability, T/C (second compound 0.01 µM, first compound 0.3 µM): 25.6%
- viability, T/C (second compound 0.01 µM, first compound 0.949 µM): 15.3%
- viability, T/C (second compound 0.01 µM, first compound 3 µM): 8.03%
- viability, T/C (second compound 0.0316 µM, first compound 0.00949 µM): 76.4%
- viability, T/C (second compound 0.0316 µM, first compound 0.03 µM): 57%
- viability, T/C (second compound 0.0316 µM, first compound 0.0949 µM): 33.7%
- viability, T/C (second compound 0.0316 µM, first compound 0.3 µM): 17.5%
- viability, T/C (second compound 0.0316 µM, first compound 0.949 µM): 10.3%
- viability, T/C (second compound 0.0316 µM, first compound 3 µM): 5.43%
- viability, T/C (second compound 0.1 µM, first compound 0.00949 µM): 56.4%
- viability, T/C (second compound 0.1 µM, first compound 0.03 µM): 37.7%
- viability, T/C (second compound 0.1 µM, first compound 0.0949 µM): 19.6%
- viability, T/C (second compound 0.1 µM, first compound 0.3 µM): 11.9%
- viability, T/C (second compound 0.1 µM, first compound 0.949 µM): 7.31%
- viability, T/C (second compound 0.1 µM, first compound 3 µM): 4.08%
- viability, T/C (second compound 0.316 µM, first compound 0.00949 µM): 39.2%
- viability, T/C (second compound 0.316 µM, first compound 0.03 µM): 25.2%
- viability, T/C (second compound 0.316 µM, first compound 0.0949 µM): 14.3%
- viability, T/C (second compound 0.316 µM, first compound 0.3 µM): 8.7%
- viability, T/C (second compound 0.316 µM, first compound 0.949 µM): 5.28%
- viability, T/C (second compound 0.316 µM, first compound 3 µM): 2.51%
- viability, T/C (second compound 1 µM, first compound 0.00949 µM): 26.2%
- viability, T/C (second compound 1 µM, first compound 0.03 µM): 17.8%
- viability, T/C (second compound 1 µM, first compound 0.0949 µM): 9.52%
- viability, T/C (second compound 1 µM, first compound 0.3 µM): 4.72%
- viability, T/C (second compound 1 µM, first compound 0.949 µM): 2.93%
- viability, T/C (second compound 1 µM, first compound 3 µM): 1.42%

- IC50 (curve of compound): > 10 µM
SMILES: CC(Cn1ccc(-c2ccc(C#N)c(Cl)c2)n1)NC(=O)c1cc(C(C)O)[nH]n1 (stereo not given)
- viability, T/C (compound 0.0316 µM): 109% and 95.2% and 110%
- viability, T/C (compound 0.1 µM): 107% and 94.8% and 102%
- viability, T/C (compound 0.316 µM): 109% and 108% and 101%
- viability, T/C (compound 1 µM): 117% and 108% and 106%
- viability, T/C (compound 3.16 µM): 98.7% and 110% and 107%
- viability, T/C (compound 10 µM): 103% and 102% and 108%

- IC50 [1]: 7.07 µM
- IC50 [2]: 7.1 µM
- IC50 [3]: 7.17 µM
- IC50 [4]: 6.84 µM
- IC50 [5]: 7.09 µM
- IC50 [6]: 6.79 µM
SMILES: CC1(C)CCC(CN2CCN(c3ccc(C(=O)NS(=O)(=O)c4ccc(NCC5CCOCC5)c([N+](=O)[O-])c4)c(Oc4cnc5[nH]ccc5c4)c3)CC2)=C(c2ccc(Cl)cc2)C1 + CC(Nc1ncnc2nc[nH]c12)c1cc2cccc(Cl)c2c(=O)n1-c1ccccc1
- viability, T/C [7]: 105%
- viability, T/C [8]: 105%
- viability, T/C [9]: 102%
- viability, T/C [10]: 110%
- viability, T/C [11]: 99.3%
- viability, T/C [12]: 28.5%
- viability, T/C [13]: 113%
- viability, T/C [14]: 112%
- viability, T/C [15]: 105%
- viability, T/C [16]: 106%
- viability, T/C [17]: 107%
- viability, T/C [18]: 25.9%
- viability, T/C [19]: 103%
- viability, T/C [20]: 98.2%
- viability, T/C [21]: 106%
- viability, T/C [22]: 110%
- viability, T/C [23]: 101%
- viability, T/C [24]: 29.1%
- viability, T/C [25]: 105%
- viability, T/C [26]: 101%
- viability, T/C [27]: 95.3%
- viability, T/C [28]: 103%
- viability, T/C [29]: 92.4%
- viability, T/C [30]: 28.9%
- viability, T/C [31]: 101%
- viability, T/C [32]: 107%
- viability, T/C [33]: 97.4%
- viability, T/C [34]: 107%
- viability, T/C [35]: 99.3%
- viability, T/C [36]: 29%
- viability, T/C [37]: 92.9%
- viability, T/C [38]: 87.7%
- viability, T/C [39]: 98.4%
- viability, T/C [40]: 97.3%
- viability, T/C [41]: 92.6%
- viability, T/C [42]: 28.4%

- IC50 [1]: 6.23 µM
- IC50 [2]: 6.09 µM
- IC50 [3]: 5.47 µM
- IC50 [4]: 5.38 µM
- IC50 [5]: 4.53 µM
- IC50 [6]: 2.39 µM
SMILES: CCCS(=O)(=O)Nc1ccc(F)c(C(=O)c2c[nH]c3ncc(-c4ccc(Cl)cc4)cc23)c1F + Cc1nc(NC(=O)N2CCCC2C(N)=O)sc1-c1ccnc(C(C)(C)C(F)(F)F)c1
- viability, T/C [7]: 104%
- viability, T/C [8]: 98%
- viability, T/C [9]: 121%
- viability, T/C [10]: 131%
- viability, T/C [11]: 113%
- viability, T/C [12]: 6.2%
- viability, T/C [13]: 99.5%
- viability, T/C [14]: 105%
- viability, T/C [15]: 105%
- viability, T/C [16]: 118%
- viability, T/C [17]: 120%
- viability, T/C [18]: 5.03%
- viability, T/C [19]: 100%
- viability, T/C [20]: 91%
- viability, T/C [21]: 95.7%
- viability, T/C [22]: 108%
- viability, T/C [23]: 91.2%
- viability, T/C [24]: 4.47%
- viability, T/C [25]: 87.8%
- viability, T/C [26]: 80.5%
- viability, T/C [27]: 91.5%
- viability, T/C [28]: 96.6%
- viability, T/C [29]: 89.6%
- viability, T/C [30]: 4.19%
- viability, T/C [31]: 69%
- viability, T/C [32]: 82.1%
- viability, T/C [33]: 77.7%
- viability, T/C [34]: 72.5%
- viability, T/C [35]: 70.7%
- viability, T/C [36]: 4.52%
- viability, T/C [37]: 61.2%
- viability, T/C [38]: 60.9%
- viability, T/C [39]: 65.3%
- viability, T/C [40]: 63.7%
- viability, T/C [41]: 46%
- viability, T/C [42]: 3.36%
